Source: patent US11155550B2, “Histone deacetylase inhibitors and methods of use thereof” (Reaction Biology Corp., priority 2018, dated 2021)

Experiments:
Settings in all cases: Table 2; incubation time 10 min
Human HDAC9 = biological target: T1, Human HDAC9 (Homo sapiens, UniProt Q9UKV0); experiment: Biochemical HDAC enzymatic assay, HDAC9
T1 construct: amino acids 604-1066 with a C-terminal His tag; His tag (C); made in house; host or cells: baculovirus expression system
Description: (§1) Incubation time for HDAC1/2 is 120 min, and 10 min for other HDACs.
Human HDAC9 (GenBank Accession No. NM_178423), amino acids 604-1066 with a C-terminal His tag, MW=50.7 kDa, was expressed in a baculovirus expression system.
(§2) • I. Compound handling: Testing compounds were dissolved in 100% DMSO to a specific concentration. The serial dilution was conducted by epMotion 5070 in DMSO. • II. HDAC reaction buffer: 50 mM Tris-HCl, pH8.0, 137 mM NaCl, 2.7 mM KCl, and 1 mM MgCl2, Added fresh: 1 mg/ml BSA, 1% DMSO. • III. […] Delivered 2× Substrate Mixture (Fluorogenic HDAC Substrate and co-factor ([…] of Nicotinamide adenine dinucleotide (NAD^+) in all Sirt assay) in all reaction wells to initiate the reaction. Spin and shake. • d. Incubated for 1-2 hr. at 30° C. with seal. • e. Added Developer with Trichostatin A (or TMP269 or NAD^+) to stop the reaction and to generate fluorescent color. • f. Fluorescence was read (excitatory, 360; emission, 460) using the EnVision Multilabel Plate Reader (Perkin Elmer) • g. Endpoint reading was taken for analysis after the development reaches plateau. • V. Data Analysis: The percentages of enzyme activity (relative to DMSO controls) and IC50 values were calculated using the GraphPad Prism 4 program based on a sigmoidal dose-response equation. […]

Human HDAC4 = biological target: T2, Human HDAC4 (Homo sapiens, UniProt P56524); experiment: Biochemical HDAC enzymatic assay, HDAC4
T2 construct: amino acids 627-1085 with a N-terminal GST tag; GST tag (N); made in house; host or cells: baculovirus expression system
T2 sequence (P56524 627-1084 limits assumed): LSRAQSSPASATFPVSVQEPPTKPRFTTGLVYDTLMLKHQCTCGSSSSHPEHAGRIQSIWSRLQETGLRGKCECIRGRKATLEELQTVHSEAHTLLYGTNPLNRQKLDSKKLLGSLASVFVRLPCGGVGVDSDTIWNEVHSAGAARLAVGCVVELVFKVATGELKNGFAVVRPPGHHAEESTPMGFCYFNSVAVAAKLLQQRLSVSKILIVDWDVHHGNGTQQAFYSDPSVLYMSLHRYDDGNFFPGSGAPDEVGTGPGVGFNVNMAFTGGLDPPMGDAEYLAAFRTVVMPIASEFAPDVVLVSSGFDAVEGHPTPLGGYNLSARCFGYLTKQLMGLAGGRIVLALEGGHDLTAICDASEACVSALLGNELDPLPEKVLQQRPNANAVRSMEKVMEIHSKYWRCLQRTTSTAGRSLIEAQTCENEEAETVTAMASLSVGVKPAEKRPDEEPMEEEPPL
Description: as §1
Human HDAC4 (GenBank Accession No. NM_006037), amino acids 627-1085 with a N-terminal GST tag, MW=75.2 kDa, was expressed in a baculovirus expression system.
as §2

Human HDAC11 = biological target: T3, Human HDAC11 (Homo sapiens, UniProt Q96DB2); experiment: Biochemical HDAC enzymatic assay, HDAC11
T3 construct: Human HDAC11 (full length); GST tag (N); made in house; host or cells: baculovirus expression system
T3 sequence (Q96DB2 1-347): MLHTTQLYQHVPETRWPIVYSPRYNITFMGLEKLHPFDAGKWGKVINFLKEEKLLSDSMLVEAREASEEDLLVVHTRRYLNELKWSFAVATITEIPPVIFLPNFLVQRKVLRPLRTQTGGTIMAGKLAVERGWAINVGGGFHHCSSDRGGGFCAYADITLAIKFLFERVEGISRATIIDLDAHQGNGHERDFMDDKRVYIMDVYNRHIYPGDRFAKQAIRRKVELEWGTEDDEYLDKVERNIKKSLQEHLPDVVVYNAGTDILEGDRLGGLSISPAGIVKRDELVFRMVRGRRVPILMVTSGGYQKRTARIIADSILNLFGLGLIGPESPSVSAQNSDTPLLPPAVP
Description: as §1
Human HDAC11 (full length) (GenBank Accession No. NM_024827) with a N-terminal GST tag, MW=66 kDa, was expressed in a baculovirus expression system.
as §2

Human HDAC10 = biological target: T4, Human HDAC10 (Homo sapiens, UniProt Q969S8); experiment: Biochemical HDAC enzymatic assay, HDAC10
T4 construct: Human HDAC10 (a.a. 1-481); GST tag (N); His tag (C); made in house; host or cells: baculovirus expression system
T4 sequence (Q969S8 1-481): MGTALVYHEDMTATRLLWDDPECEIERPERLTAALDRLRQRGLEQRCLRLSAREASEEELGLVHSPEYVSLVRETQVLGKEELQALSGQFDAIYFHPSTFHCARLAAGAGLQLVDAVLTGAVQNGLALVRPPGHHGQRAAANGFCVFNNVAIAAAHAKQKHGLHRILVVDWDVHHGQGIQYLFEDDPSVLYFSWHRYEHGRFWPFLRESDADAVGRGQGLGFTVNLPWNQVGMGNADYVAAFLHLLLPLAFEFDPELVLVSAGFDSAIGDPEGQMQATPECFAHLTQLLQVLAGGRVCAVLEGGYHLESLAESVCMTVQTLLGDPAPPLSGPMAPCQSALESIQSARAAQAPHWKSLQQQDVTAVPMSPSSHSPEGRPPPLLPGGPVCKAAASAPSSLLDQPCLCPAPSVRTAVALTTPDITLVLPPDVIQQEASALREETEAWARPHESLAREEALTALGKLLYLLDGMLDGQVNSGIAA
Description: as §1
Human HDAC10 (a.a. 1-481), GenBank Accession No. NM_032019 with a N-terminal GST tag and a C-terminal His tag, MW=78 kDa, was expressed in a baculovirus expression system.
as §2

T1 sequence (Q9UKV0 604-1066 isoform Q9UKV0-5): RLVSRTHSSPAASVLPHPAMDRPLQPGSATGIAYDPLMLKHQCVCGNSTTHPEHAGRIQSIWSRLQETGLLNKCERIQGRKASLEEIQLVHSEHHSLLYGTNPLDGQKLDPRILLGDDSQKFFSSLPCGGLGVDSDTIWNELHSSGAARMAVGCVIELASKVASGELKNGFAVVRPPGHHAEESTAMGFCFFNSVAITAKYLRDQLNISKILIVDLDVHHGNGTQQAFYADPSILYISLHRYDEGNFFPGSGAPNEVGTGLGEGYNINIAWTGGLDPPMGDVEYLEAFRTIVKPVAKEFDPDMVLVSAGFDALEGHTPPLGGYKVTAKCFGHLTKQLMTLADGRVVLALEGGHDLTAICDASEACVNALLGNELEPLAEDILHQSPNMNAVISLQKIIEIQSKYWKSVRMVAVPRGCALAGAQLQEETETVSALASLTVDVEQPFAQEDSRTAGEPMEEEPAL

| IC50 (Human HDAC9) [µM] | IC50 (Human HDAC4) [µM] | IC50 (Human HDAC11) [µM] | IC50 (Human HDAC10) [µM] | Compound |
| --- | --- | --- | --- | --- |
| 3.2 | 5 | 4.1 | > 10 | CN(C)C(=O)N1CCC2(CC1)c1ccccc1C(=O)N2Cc1ccc(C(=O)NO)cc1 [Compound Example 11, 2-(4-(hydroxycarbamoyl)benzyl)-N,N-dimethyl-3-oxospiro[isoindoline-1,4′-piperidine]-1′-carboxamide] |
| 6.9 | > 10 | 3.6 | > 10 | O=C(NO)c1ccc(CN2C(=O)c3ccccc3C23CCN(C2CC2)CC3)cc1 [Compound Example 12, 4-((1′-cyclopropyl-3-oxospiro[isoindoline-1,4′-piperidin]-2-yl)methyl)-N-hydroxybenzamide] |
